Measured values as given in US20250388605A1, “HETEROBIFUNCTIONAL COMPOUNDS AND METHODS OF TREATING DISEASE” (Halda Therapeutics OpCo, Inc., priority 2022, published 2025).

How the values were obtained:
T47D cells = test: Cellular Growth Inhibition Assay for T47D Cells (CellTiter-Glo); assay type: cell-based, human; conditions: 72 hours
Method: Exemplary compounds were tested for ability to inhibit the proliferation of T47D cells. T47D cells are a commercially available human breast cancer cell line.
T47D cells were purchased from American Type Cell Culture (ATCC Cat #HTB-133) and then seeded on poly-D-lysine coated, black clear-bottom 384-well plates at 3000/well in 25 μL Dulbecco's Modified Eagle Medium (DMEM) supplemented with 10% w/w Fetal bovine serum (FBS), 0.2 units/mL recombinant human insulin (Gibco Cat #12585014), and 1% w/w Pen-Strep. Pen-Strep is a commercially available mixture of penicillin G and streptomycin, which is used in mammalian cell culture media to prevent bacterial contamination. Dulbecco's Modified Eagle Medium (DMEM) supplemented with 10% w/w fetal bovine serum (FBS), 0.2 units/mL recombinant human insulin, and 1% w/w Pen-Strep is herein referred to as Treatment Medium. Following seeding of cells in the plates, the plates were spun at 300×g for 30 seconds, then equilibrated to room temperature for 30 minutes, and then deposited in a humidified tissue culture incubator maintained at 37° C. with 5% CO2.
At 24 hours after seeding of the cells, dilutions of test compound were prepared in DMSO and dissolved in Treatment Medium, to achieve a final DMSO concentration of 0.5% w/w, thereby providing the Test Compound Solution. A 25 μL aliquot of the Test Compound Solution was added to cells in the well plates. An equal volume of a solution containing DMSO and Treatment Medium was used as a negative control. Following treatment of cells with Test Compound Solution or said equal volume of a solution containing DMSO and Treatment Medium, the plates were spun at 300×g for 30 seconds, and then left in an incubator for 72 hours.
At the end of the treatment duration, cell viability was quantified with CellTiter-Glo 2.0 reagent (Promega Cat #G9243). For this purpose, plates were equilibrated to room temperature for 30 minutes, and then 25 μL of CellTiter-Glo 2.0 reagent was added to cells in the plate wells. Plates were then agitated on a shaker for two minutes at 500 rpm and subsequently incubated at room temperature for 10 minutes. Following incubation, the plates were spun at 3000×g for 30 seconds, then sealed with an optical adhesive cover, and luminescence readings were measured with an EnVision Plate Reader (Perkin Elmer).
Data was normalized using zero luminescence for baseline. A four-parameter non-linear regression curve fit was applied to dose-response data in GraphPad Prism data analysis software to determine the half-maximal growth inhibitory concentration (GI50) for each test compound.

[1] = tested on: T-Rex 293 cell line SC3 cells having increased expression of androgen receptor protein due to exposure to doxycycline; test: Cellular growth inhibition, T-Rex 293 SC3 cells with doxycycline (increased androgen receptor expression), CellTiter-Glo; assay type: cell-based; conditions: T-Rex 293 SC3 cells with 10 ng/mL doxycycline (increased androgen receptor expression), 72 hours, CellTiter-Glo 2.0
In short: (§1)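 Doxycycline (10 ng/mL) was either included or omitted to toggle wild-type androgen receptor expression in SC3 cells, a T-Rex 293 clone, grown in stripped-serum, phenol red-free medium. After 72 hours with compound, viable cells were quantified by CellTiter-Glo 2.0.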

[2] = tested on: T-Rex 293 cell line SC3 cells lacking increased expression of androgen receptor protein; test: Cellular growth inhibition, T-Rex 293 SC3 cells without doxycycline (no increased androgen receptor expression), CellTiter-Glo; assay type: cell-based; conditions: T-Rex 293 SC3 cells not exposed to doxycycline (no increased androgen receptor expression), 72 hours
In short: as §1

VCaP cells = test: Cellular growth inhibition assay for VCaP cells, CellTiter-Glo; assay type: cell-based, human; conditions: 72 hours
In short: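 GI50 values come from four-parameter curve fits of luminescence data normalized to a zero baseline. Compound, in medium with 0.5% DMSO, was added one day after plating and left for 72 h before CellTiter-Glo 2.0 addition.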

Structure (SMILES)	GI50 (T47D cells)	GI50 [1]	GI50 [2]	GI50 (T47D cells; Homo sapiens)	further results
CC(C)c1ccc(Oc2cccc(OCCC3CCN(c4ncc(C(=O)N[C@H]5C(C)(C)[C@H](Oc6ccc(C#N)c(Cl)c6)C5(C)C)cn4)CC3)c2)c(-c2cn(C)c(=O)c3[nH]ccc23)c1 [Compound I-141]	500 to 1500 nM				
CCS(=O)(=O)Nc1ccc(Oc2cccc(NCCN(C)C3CCN(c4ncc(C(=O)N[C@H]5C(C)(C)[C@H](Oc6ccc(C#N)c(Cl)c6)C5(C)C)cn4)CC3)c2)c(-c2cn(C)c(=O)c3[nH]ccc23)c1 [Compound I-173]		500 to 1500 nM	> 3000 nM		GI50 (VCaP cells; Homo sapiens): < 500 nM
CCS(=O)(=O)Cc1ccc(Oc2cccc(N3CC(N4CCN(c5ncc(C(=O)N[C@H]6C(C)(C)[C@H](Oc7ccc(C#N)c(Cl)c7)C6(C)C)cn5)CC4)C3)c2F)c(-c2cn(C)c(=O)c3[nH]ccc23)c1 [Compound I-174]		< 500 nM	> 3000 nM		GI50 (VCaP cells; Homo sapiens): < 500 nM
CCS(=O)(=O)c1ccc(Oc2cccc(CCCOC3CCN(c4ncc(C(=O)N[C@H]5C(C)(C)[C@H](Oc6ccc(C#N)c(Cl)c6)C5(C)C)cn4)CC3)c2F)c(-c2cn(C)c(=O)c3[nH]ccc23)c1 [Compound I-176]		< 500 nM	< 500 nM		GI50 (VCaP cells; Homo sapiens): < 500 nM
CCS(=O)(=O)c1ccc(OCC(OCCOC2CCN(c3ncc(C(=O)N[C@H]4C(C)(C)[C@H](Oc5ccc(C#N)c(Cl)c5)C4(C)C)cn3)CC2)C2CC2)c(-c2cn(C)c(=O)c3[nH]ccc23)c1 (some centres unmarked) [Compound I-177]		< 500 nM	< 500 nM		GI50 (VCaP cells): < 500 nM
CCS(=O)(=O)Nc1ccc(Oc2cccc(N(CCN(C)C3CCN(c4ncc(C(=O)N[C@H]5C(C)(C)[C@H](Oc6ccc(C#N)c(Cl)c6)C5(C)C)cn4)CC3)C(C)C)c2F)c(-c2cn(C)c(=O)c3[nH]ccc23)c1 [Compound I-183]		< 500 nM	< 500 nM		GI50 (VCaP cells): < 500 nM
CCS(=O)(=O)Cc1ccc(Oc2cccc(CCCOC3CCN(c4ncc(C(=O)N[C@H]5C(C)(C)[C@H](Oc6ccc(C#N)c(Cl)c6)C5(C)C)cn4)CC3)c2F)c(-c2cn(C)c(=O)c3[nH]ccc23)c1 [Compound I-184]		< 500 nM	< 500 nM		GI50 (VCaP cells; Homo sapiens): < 500 nM
CCS(=O)(=O)Nc1ccc(Oc2cccc(OCCOC3CCN(c4ccc(C(=O)N[C@H]5C(C)(C)[C@H](Oc6ccc(C#N)c(Cl)c6)C5(C)C)cn4)CC3)c2F)c(-c2cn(C)c(=O)c3[nH]ccc23)c1 [Compound I-188]		< 500 nM	< 500 nM		GI50 (VCaP cells; Homo sapiens): < 500 nM
Cn1cc(-c2cc(C(C)(C)O)ccc2Oc2ccc(CC3CC4(CCN(c5ncc(C(=O)N[C@H]6C(C)(C)[C@H](Oc7ccc(C#N)c(Cl)c7)C6(C)C)cn5)CC4)C3)cc2)c2cc[nH]c2c1=O [Compound I-324]				< 500 nM	
Cn1cc(-c2cc(C(C)(C)O)ccc2Oc2ccc(N3CC4(CCN(c5cnc(C(=O)N[C@H]6C(C)(C)[C@H](Oc7ccc(C#N)c(Cl)c7)C6(C)C)cn5)CC4)C3)cc2)c2cc[nH]c2c1=O [Compound I-352]		< 500 nM	> 3000 nM		GI50 (VCaP cells): < 500 nM
Cn1cc(-c2cc(C(C)(C)O)ccc2Oc2ccc(N3CC4(CCN(c5ncc(C(=O)N[C@H]6C(C)(C)[C@H](Oc7ccc(C#N)c(Cl)c7)C6(C)C)cn5)CC4)C3)cc2)c2cc[nH]c2c1=O [Compound I-353]		< 500 nM	1500 to 3000 nM		GI50 (VCaP cells): 1500 to 3000 nM
Cn1cc(-c2cc(C(C)(C)O)ccc2Oc2ccc(C3CC(CC4CCN(c5ncc(C(=O)N[C@H]6C(C)(C)[C@H](Oc7ccc(C#N)c(Cl)c7)C6(C)C)cn5)CC4)C3)cc2)c2cc[nH]c2c1=O (some centres unmarked) [Compound I-354]				< 500 nM	
Cn1cc(-c2cc(C(C)(C)O)ccc2Oc2ccc(N3CC4(C3)CN(c3cnc(C(=O)N[C@H]5C(C)(C)[C@H](Oc6ccc(C#N)c(Cl)c6)C5(C)C)cn3)C4)cc2)c2cc[nH]c2c1=O [Compound I-355]	< 500 nM				
Cn1cc(-c2ccccc2Oc2ccc(OCC3CCN(c4ncc(C(=O)NC5C(C)(C)C(Oc6ccc(C#N)c(Cl)c6)C5(C)C)cn4)CC3)cc2)c2cc[nH]c2c1=O (centres unmarked) [Compound I-356, N-[3-(3-chloro-4-cyano-phenoxy)-2,2,4,4-tetramethyl-cyclobutyl]-2-[4-[[4-[2-(6-methyl-7-oxo-1H-pyrrolo[2,3-c]pyridin-4-yl)phenoxy]phenoxy]methyl]-1-piperidyl]pyrimidine-5-carboxamide]				< 500 nM	
Cn1cc(-c2cc(C(C)(C)O)ccc2Oc2ccc(C#CC3CC4(C3)CN(c3ncc(C(=O)NC5C(C)(C)C(Oc6ccc(C#N)c(Cl)c6)C5(C)C)cn3)C4)cc2)c2cc[nH]c2c1=O (centres unmarked) [Compound I-357, N-[3-(3-chloro-4-cyano-phenoxy)-2,2,4,4-tetramethyl-cyclobutyl]-2-[6-[2-[4-[4-(1-hydroxy-1-methyl-ethyl)-2-(6-methyl-7-oxo-1H-pyrrolo[2,3-c]pyridin-4-yl)phenoxy]phenyl]ethynyl]-2-azaspiro[3.3]heptan-2-yl]pyrimidine-5-carboxamide]				< 500 nM	
Cn1cc(-c2ccccc2Oc2ccc(OC3CC4(C3)CC3(CCN(c5ncc(C(=O)N[C@H]6C(C)(C)[C@H](Oc7ccc(C#N)c(Cl)c7)C6(C)C)cn5)CC3)C4)cc2)c2cc[nH]c2c1=O [Compound I-358]				> 3000 nM	
Cn1cc(-c2ccccc2Oc2ccc(N3CC(CC4CCN(c5ncc(C(=O)N[C@H]6C(C)(C)[C@H](Oc7ccc(C#N)c(Cl)c7)C6(C)C)cn5)CC4)C3)cc2)c2cc[nH]c2c1=O [Compound I-359]	> 3000 nM				
Cn1cc(-c2ccccc2Oc2ccc(N3CC(C4CCN(c5ncc(C(=O)N[C@H]6C(C)(C)[C@H](Oc7ccc(C#N)c(Cl)c7)C6(C)C)cn5)CC4)C3)cc2)c2cc[nH]c2c1=O [Compound I-360]	500 to 1500 nM				
Cn1cc(-c2ccccc2Oc2ccc(N3CC(CC4CCN(c5cnc(C(=O)N[C@H]6C(C)(C)[C@H](Oc7ccc(C#N)c(Cl)c7)C6(C)C)cn5)CC4)C3)cc2)c2cc[nH]c2c1=O [Compound I-361]	< 500 nM				
Cn1cc(-c2cc(C(C)(C)O)ccc2Oc2ccc(N3CC(C4CCCN(c5ncc(C(=O)N[C@H]6C(C)(C)[C@H](Oc7ccc(C#N)c(Cl)c7)C6(C)C)cn5)CCC4)C3)cc2)c2cc[nH]c2c1=O [Compound I-362]	< 500 nM				
Cn1cc(-c2ccccc2Oc2ccc(N3CC(CC4CN(c5ncc(C(=O)N[C@H]6C(C)(C)[C@H](Oc7ccc(C#N)c(Cl)c7)C6(C)C)cn5)C4)C3)cc2)c2cc[nH]c2c1=O [Compound I-363]	< 500 nM				
Cn1cc(-c2ccccc2Oc2ccc(N3CC(CC4CCN(c5ccc(C(=O)N[C@H]6C(C)(C)[C@H](Oc7ccc(C#N)c(Cl)c7)C6(C)C)nc5)CC4)C3)cc2)c2cc[nH]c2c1=O [Compound I-364]	> 3000 nM				
Cn1cc(-c2ccccc2Oc2ccc(N3CC(C4CCN(c5cnc(C(=O)N[C@H]6C(C)(C)[C@H](Oc7ccc(C#N)c(Cl)c7)C6(C)C)cn5)CC4)C3)cc2)c2cc[nH]c2c1=O [Compound I-365]	< 500 nM				
Cn1cc(-c2cc(C(C)(C)O)ccc2Oc2ccc(OC3CC4(C3)CC3(CCN(c5cnc(C(=O)N[C@H]6C(C)(C)[C@H](Oc7ccc(C#N)c(Cl)c7)C6(C)C)cn5)CC3)C4)cc2)c2cc[nH]c2c1=O [Compound I-366]				> 3000 nM	
Cn1cc(-c2cc(C(C)(C)O)ccc2Oc2ccc(OC3CC4(C3)CC3(CCN(c5ccc(C(=O)N[C@H]6C(C)(C)[C@H](Oc7ccc(C#N)c(Cl)c7)C6(C)C)nc5)CC3)C4)cc2)c2cc[nH]c2c1=O [Compound I-367]				> 3000 nM	
Cn1cc(-c2cc(C(C)(C)O)ccc2Oc2ccc(CC3CCN(c4ccc(C(=O)N[C@H]5C(C)(C)[C@H](Oc6ccc(C#N)c(Cl)c6)C5(C)C)nc4)CC3)cc2)c2cc[nH]c2c1=O [Compound I-368]				< 500 nM	
